Assay [1] concerns Mus musculus. As to the kind of experiment: (§1) Antiinflammatory activity of compound was measured in the phorbol-ester induced mouse chronic ear edema assay. In kind it is functional.
For assay [2], the target named is T1, Phospholipase A2, membrane associated (Homo sapiens, UniProt P14555).
T1 sequence (P14555 whole entry): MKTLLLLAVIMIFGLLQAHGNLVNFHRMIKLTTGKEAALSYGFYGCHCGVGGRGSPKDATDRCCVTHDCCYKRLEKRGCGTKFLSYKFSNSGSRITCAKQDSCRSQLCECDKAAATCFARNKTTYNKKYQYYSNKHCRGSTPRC
As to the kind of experiment: Compound was measured for the inhibition of human platelet PLA2 (HP-PLA2).

Assay [3] deals with Mus musculus. Described as §1. In kind it is functional. The source holds these as a separate data set.

What is called IC50 is the midpoint of a concentration-inhibition curve. Low readings indicate greater potency, high ones weaker potency.

In the assay with Mus musculus [1], `C/C(=C\C(=O)O)C(=Cc1ccc2cc(OCc3ccccc3)c(OCc3ccccc3)cc2c1)c1cccc(C(=O)O)c1` registered an ED50 of 208 ug ear-1 dose-1.

In the case of `C/C(=C\C(=O)O)C(=CCCc1ccc2cc3c(cc2c1)C(C)(C)CCC3(C)C)c1cccc(C(=O)O)c1`, in assay [2], the midpoint of inhibition, the IC50, lay at 2 µM. The compound further returned an ED50 with Mus musculus [1] of 89 ug ear-1 dose-1.

Compound `C/C(=C\C(=O)O)C(=Cc1ccc2cc3c(cc2c1)C(C)(C)CCC3(C)C)c1cccc(C(=O)O)c1` yielded an IC50 in assay [2] of 17 µM. The same compound showed an ED50 with Mus musculus [1] of 9.37 ug ear-1 dose-1.

Turning to `C/C(=C\C(=O)O)C(=Cc1ccc2cc(OCCCc3ccccc3)ccc2c1)c1cccc(C(=O)O)c1`, the IC50 in assay [2] was 17 µM. For the same compound, the values for the ED50 with Mus musculus [3] and in the assay with Mus musculus [1] were 90 ug ear-1 dose-1 and 30 ug ear-1 dose-1, respectively.

Compound `CCCCCCCCCCOc1ccc(C=C(/C(C)=C/C(=O)O)c2cccc(C(=O)O)c2)cc1` registered an IC50 in assay [2] of 7 µM.

`CC1=C(/C=C/C(C)=C/C=C(/C(C)=C/C(=O)O)c2cccc(C(=O)O)c2)C(C)(C)CCC1`: in the assay on Mus musculus [1], the ED50 stood at 160 ug ear-1 dose-1.

`CCCCCCCCCCOc1ccc2cc(C=C(/C(C)=C/C(=O)O)c3cccc(C(=O)O)c3)ccc2c1` gave an IC50 in assay [2] of 14 µM. Besides, in the assay on Mus musculus [1], the ED50 is listed as 31 ug ear-1 dose-1.

In assay [2], `C/C(=C\C(N)=O)C(=Cc1ccc2cc3c(cc2c1)C(C)(C)CCC3(C)C)c1cccc(C(N)=O)c1` displayed an IC50 of 4 µM. The compound further came in with an ED50 in the assay with Mus musculus [1] of 186 ug ear-1 dose-1.

`C/C(=C\C(=O)O)C(=CCCc1ccc(C23C[C@H]4C[C@@H](C2)C[C@@H](C3)C4)c(O)c1)c1cccc(C(=O)O)c1` gave an IC50 in assay [2] of 8 µM.

(Values after ChEMBL document CHEMBL1129887, “Dicarboxylic acid inhibitors of phospholipase A2” (Bioorg Med Chem Lett, 1997).)
